Reference: US12383556B2, “Methods of treating Sjögren's syndrome using a Bruton's tyrosine kinase inhibitor” (NOVARTIS AG, priority 2019, dated 2025)
Like-named read-outs stand apart in the source and are kept apart here.

Assay: First-in-human Part 2 multiple ascending dose q.d. blood and urine PK
Assay type: in vivo
Conditions: for Amount recovered / Amount recovered (%): Day 12, urine; for drug accumulation ratio (Racc): day 12 vs day 1, q.d.; for CL renal: blood and urine, Day 12, read-out: Renal clearance
Text: First-in-human study in up to approximately 168 healthy volunteers (HVs), of which 64 (in Parts 2 & 4) had asymptomatic atopic diathesis. • Part 1 was a double-blind (subject and investigator blind, sponsor unblinded), placebo-controlled single ascending dose (SAD) escalation study of 10 cohorts (N=80) • Part 2 was a double-blind (subject and investigator blind, sponsor unblinded), placebo-controlled multiple ascending dose (MAD) (13 doses over 12 days) escalation study employing once daily dosing in 6 cohorts in healthy volunteers with asymptomatic atopic diathesis (N=48) • Part 3 was a single dose open-label crossover food effect study in 12 HVs • Part 4 was a double-blind (subject and investigator blind, sponsor unblinded), placebo-controlled multiple dose (25 doses over 12 days) study employing twice daily dosing in 2 cohorts of healthy volunteers with asymptomatic atopic diathesis (N=16)
In Parts 2 and 4, subjects were admitted on Day −2 or −1 for baseline safety assessments and to confirm eligibility. Eligible subjects received the first dose of compound (I) under fasting conditions on Day 1, and continued to take study medication under fasting conditions up to and including Day 12. Subjects were domiciled from Day −2 or −1 until the morning of Day 16, which equals 96 hours after the last dose of compound (I) was received. In Parts 2 and 4, the study medication was given once daily and twice daily respectively (details are found in the schedule of assessments).
Subjects were assigned to one of the following 6 cohorts. In each cohort, 8 subjects were randomized to either compound (I) or matching placebo in a 6:2 ratio. • Cohort 1: multiple oral doses of 10 mg compound (I) or matching placebo • Cohort 2: multiple oral doses of 25 mg compound (I) or matching placebo • Cohort 3: multiple oral doses of 50 mg compound (I) or matching placebo • Cohort 4: multiple oral doses of 100 mg compound (I) or matching placebo • Cohort 5: multiple oral doses of 400 mg compound (I) or matching placebo • Cohort 6: multiple oral doses of up to 600 mg compound (I) or matching placebo
Pharmacokinetic samples were obtained in blood and evaluated in all subjects at all dose levels. The samples from placebo subjects were not analyzed. The samples for PK assessments from subjects were collected at time points defined in the study. Compound (I) concentrations were determined in blood by a validated LC-MS/MS method.

[1] = 10 mg qd, Day 12, blood, Mean ± SD
[2] = 25 mg qd, Day 12, blood, Mean ± SD
[3] = 50 mg qd, Day 12, blood, Mean ± SD
[4] = 50 mg qd, Day 12, blood, Median (Min-Max)
[5] = 100 mg qd, Day 1, blood, Mean ± SD
[6] = 100 mg qd, Day 1, blood, Median (Min-Max)
[7] = 100 mg qd, Day 12, blood, Mean ± SD
[8] = 400 mg qd, Day 1, blood, Mean ± SD
[9] = 400 mg qd, Day 12, blood, Mean ± SD
[10] = 600 mg qd, Day 1, blood, Mean ± SD
[11] = 600 mg qd, Day 12, blood, Mean ± SD

Compound: C=CC(=O)N(C)CCOc1c(N)ncnc1-c1cc(F)cc(NC(=O)c2ccc(C3CC3)cc2F)c1C [Compound of Formula (I), N-(3-(6-Amino-5-(2-(N-methylacrylamido)ethoxy)pyrimidin-4-yl)-5-fluoro-2-methylphenyl)-4-cyclopropyl-2-fluorobenzamide]
- Cmax (10 mg qd, Day 1, blood, Mean ± SD): 8.40 ± 2.02 ng/mL
- CLss/F [1]: 425 ± 64.8 L/h
- Cmax [1]: 18.2 ± 5.90 ng/mL
- CLss/F (10 mg qd, Day 12, blood, Median (Min-Max)): 423 (341-529) L/h
- Amount recovered (10 mg qd, Mean ± SD): 0.0663 ± 0.0309 mg
- Amount recovered (%) (10 mg qd, Mean ± SD): 0.663 ± 0.309%
- Amount recovered (10 mg qd, Median (Min-Max)): 0.0630 mg
- Cmax (25 mg qd, Day 1, blood, Mean ± SD): 40.9 ± 21.6 ng/mL
- CLss/F [2]: 307 ± 253 L/h
- Cmax [2]: 85.9 ± 31.5 ng/mL
- CLss/F (25 mg qd, Day 12, blood, Median (Min-Max)): 248 (129-809) L/h
- Amount recovered (25 mg qd, Mean ± SD): 0.114 ± 0.0706 mg
- Amount recovered (%) (25 mg qd, Mean ± SD): 0.456 ± 0.283%
- Cmax (50 mg qd, Day 1, blood, Mean ± SD): 76.5 ± 22.0 ng/mL
- CLss/F [3]: 268 ± 92.8 L/h
- Cmax [3]: 102 ± 22.0 ng/mL
- CLss/F [4]: 276 (154-395) L/h
- Cmax [4]: 100 (73.3-131) ng/mL
- Amount recovered (50 mg qd, Mean ± SD): 0.233 ± 0.0880 mg
- Amount recovered (%) (50 mg qd, Mean ± SD): 0.467 ± 0.176%
- AUC0-24 [5]: 315 ± 91.5 ng·h/mL
- AUClast [5]: 311 ± 89.1 ng·h/mL
- Cmax [5]: 187 ± 85.0 ng/mL
- MRT [5]: 167 ± 76.8 min
- AUC0-24 [6]: 338 (168-419) h*ng/mL
- AUClast [6]: 333 (168-416) h*ng/mL
- Cmax [6]: 189 (75.6-285) ng/mL
- AUC0-24 [7]: 485 ± 179 ng·h/mL
- AUClast [7]: 488 ± 172 ng·h/mL
- CLss/F [7]: 198 ± 88.7 L/h
- Cmax [7]: 233 ± 84.1 ng/mL
- CLss/F (100 mg qd, Day 12, blood, Median (Min-Max)): 166 (129-298) L/h
- Amount recovered (100 mg qd, Mean ± SD): 0.648 ± 0.330 mg
- Amount recovered (%) (100 mg qd, Mean ± SD): 0.648 ± 0.330%
- AUC0-24 [8]: 977 ± 378 ng·h/mL
- AUClast [8]: 973 ± 379 ng·h/mL
- Cmax [8]: 518 ± 89.1 ng/mL
- MRT [8]: 181 ± 66.6 min
- Cmax (400 mg qd, Day 1, blood, Median (Min-Max)): 513 (383-622) ng/mL
- AUC0-24 [9]: 1280 ± 577 ng·h/mL
- AUClast [9]: 1300 ± 602 ng·h/mL
- CLss/F [9]: 366 ± 150 L/h
- Cmax [9]: 551 ± 263 ng/mL
- CLss/F (400 mg qd, Day 12, blood, Median (Min-Max)): 351 (177-591) L/h
- Amount recovered (400 mg qd, Mean ± SD): 1.25 ± 0.647 mg
- Amount recovered (%) (400 mg qd, Mean ± SD): 0.313 ± 0.162%
- AUC0-24 [10]: 1080 ± 377 ng·h/mL
- AUClast [10]: 1080 ± 377 ng·h/mL
- Cmax [10]: 550 ± 87.6 ng/mL
- MRT [10]: 188 ± 34.8 min
- Cmax (600 mg qd, Day 1, blood, Median (Min-Max)): 545 (461-691) ng/mL
- AUC0-24 [11]: 1230 ± 356 ng·h/mL
- AUClast [11]: 1240 ± 341 ng·h/mL
- CLss/F [11]: 521 ± 131 L/h
- Cmax [11]: 563 ± 229 ng/mL
- CLss/F (600 mg qd, Day 12, blood, Median (Min-Max)): 569 (345-661) L/h
- Amount recovered (600 mg qd, Mean ± SD): 1.54 ± 0.915 mg
- Amount recovered (%) (600 mg qd, Mean ± SD): 0.257 ± 0.153%
- drug accumulation ratio (Racc) (high dose): 1.2
- drug accumulation ratio (Racc) (low dose): 5
- CL renal (human, oral, 10 mg, 10 mg qd, Mean ± SD): 45.3 ± 18 mL/min
- CL renal (human, oral, 10 mg, 10 mg qd, Median (Min-Max)): 41.6 mL/min
- CL renal (human, oral, 25 mg, 25 mg qd, Mean ± SD): 16.8 ± 6.81 mL/min
- CL renal (human, oral, 25 mg, 25 mg qd, Median (Min-Max)): 18.9 mL/min
- CL renal (human, oral, 50 mg, 50 mg qd, Mean ± SD): 20.4 ± 2.4 mL/min
- CL renal (human, oral, 50 mg, 50 mg qd, Median (Min-Max)): 20.5 mL/min
- CL renal (human, oral, 100 mg, 100 mg qd, Mean ± SD): 21.6 ± 5.41 mL/min
- CL renal (human, oral, 100 mg, 100 mg qd, Median (Min-Max)): 21.1 mL/min
- CL renal (human, oral, 400 mg, 400 mg qd, Mean ± SD): 16.9 ± 7.13 mL/min
- CL renal (human, oral, 400 mg, 400 mg qd, Median (Min-Max)): 14.5 mL/min
- CL renal (human, oral, 600 mg, 600 mg qd, Mean ± SD): 20 ± 8.25 mL/min
- CL renal (human, oral, 600 mg, 600 mg qd, Median (Min-Max)): 18.1 mL/min
- AUC(0-t) (human, blood, oral, 10 mg, 10 mg qd, Day 1, blood, Mean ± SD, read-out: AUC0-24): 4.94 ± 1.35 ng·h/mL
- AUC(0-t) (human, blood, oral, 10 mg, 10 mg qd, Day 1, blood, Mean ± SD, read-out: AUClast): 4.17 ± 1.38 ng·h/mL
- MRT (human, blood, oral, 10 mg, 10 mg qd, Day 1, blood, Mean ± SD, read-out: MRT): 45.7 ± 9.06 min
- Tmax (human, blood, oral, 10 mg, 10 mg qd, Day 1, blood, Median (Min-Max)): 31 min
- AUC(0-t) (human, blood, oral, 10 mg, 10 mg qd, Day 1, blood, Median (Min-Max), read-out: AUC0-24): 4.94 ng·h/mL
